{"source": "paper PMC6731340", "about": "“Evaluation of synergy between host and pathogen-directed therapies against intracellular Leishmania donovani” (International Journal for Parasitology: Drugs and Drug …, 2019)", "key": {"[1]": {"system": "L. donovani extracellular promastigotes", "assay": "Resazurin-based drug susceptibility assay on promastigotes", "assay_type": "cell-based", "conditions": "Leishmania donovani, 72 h drug at 25 °C", "description": "(§1) Leishmania donovani strain (ATCC 30030; ATCC; Manassas VA) was used in all studies and grown via manufacture's specification. The promastigotes screening were performed as described previously, with few modifications ([Kulshrestha et al., 2013]). Late log-phase promastigotes (1 × 10^5 per one 96-well) were incubated with drug for 72 h at 25 °C. Resazurin was added [0.002% (w/v)], incubated for 24 h and assessed fluorometrically (ex: 544 nm/em: 590 nm; SpectraMax M2, Molecular Devices, Sunnyvale, CA). L. donovani axenic amastigotes were differentiated as described previously, with little modification ([Ephros et al., 1997]). Late log-phase promastigotes were differentiated into axenic amastigotes in a low pH (6.3) medium for 96 h at 37 °C. Fully differentiated axenic amastigotes (2 × 10^5 per one 96-well) were incubated 72 h with drug at 37 °C, and resazurin assay was then performed as indicated above."}, "[2]": {"system": "Mouse bone marrow-derived macrophages (BMDMs)", "assay": "LDH mammalian cytotoxicity assay", "conditions": "50% Lethal Dose for BMDMs", "source_text": "(§2) Mouse bone marrow-derived macrophages (BMDMs) isolation from BALB/c mice and culture was done as described previously ([Weischenfeldt and Porse, 2008]), and approved by the Animal Care and Use Committees at UNC. A lactate dehydrogenase (LDH) assay (Thermo Fisher Scientific, Grand Island, NY) was used to determine cytotoxicity per manufacturer's directions."}, "[3]": {"system": "L. donovani intracellular amastigotes", "assay": "Image-based (Giemsa) evaluation of intracellular anti-leishmanial activity in infected BMDMs", "assay_type": "cell-based", "conditions": "Leishmania donovani, BMDM, 72 h, Giemsa stain", "description": "An image-based anti-leishmanial assay was used as described previously with slight modification ([Collier et al., 2016]). BMDMs seeded on round glass coverslips (5 × 10^5 cells per one 24-well) were allowed to adhere overnight, infected with stationary phase L. donovani promastigotes (MOI 1:10), incubated overnight, and washed (3×) with warmed serum-free media. Compounds were added, incubated for 72 h, washed (3×) with PBS, fixed with methanol and stained with Giemsa stain (1:20 in H2O). An EVOS XL (100×, Thermo Fisher Scientific) was used for imaging. L. donovani amastigotes per 100 macrophages was determined, in duplicate, and in a blinded fashion."}, "[4]": {"system": "L. donovani axenic amastigotes", "assay": "Resazurin-based drug susceptibility assay on axenic amastigotes", "assay_type": "cell-based", "conditions": "Leishmania donovani, 72 h drug at 37 °C", "description": "as §1"}, "[5]": {"system": "L. donovani intracellular amastigotes", "assay": "Modified resazurin-based viability analysis of L. donovani in infected macrophages", "assay_type": "cell-based, Leishmania donovani", "conditions": "for Selectivity (LD50/IC50): LD50 macrophages / resazurin intracellular IC50; for IC50: Leishmania donovani, BMDM, infected BMDMs, 72 h", "description": "BMDMs (1 × 10^5 per one 96-well) infected overnight with stationary phase L. donovani promastigotes (MOI 1:10), were washed (3×) with serum free DMEM, and incubated with compounds for 72 h. Then, parasites were rescued with BMDM controlled lysis, modified from a previous report ([Kiderlen and Kaye, 1990]). In brief, cells were washed with serum-free HEPES-buffered RPMI (HEPES-RPMI; 1×), lysed (20 min) with HEPES-RPMI (100 μL/well) with 0.008% SDS (w/v), SDS neutralized with HEPES-RPMI with 17% FBS (v/v; 150 μL/well) and placed in an air-tight container (25 °C for 96 h). Resazurin [0.02% (w/v); 25 μL] was added, incubated (24 h) and was assessed fluorometrically."}, "VL patients": {"system": "VL patients", "design": "method as in Sundar et al., 2008", "conditions": "AMB alone; ref Sundar et al., 2008; cited from earlier work"}, "[6]": {"system": "Mouse bone marrow-derived macrophages (BMDMs)", "conditions": "BALB/c", "source_text": "as §2"}, "promastigotes": {"system": "promastigotes", "design": "method as in Pan et al., 2012", "conditions": "ref Pan et al., 2012; read-out: IC50, direct activity against promastigotes; cited from earlier work"}, "[7]": {"system": "intracellular L. mexicana", "design": "method as in Pan et al., 2012", "conditions": "ref Pan et al., 2012; read-out: IC50, anti-leishmanial activity against intracellular L. mexicana; cited from earlier work"}, "[8]": {"design": "method as in earlier work", "conditions": "ref Mishra and Singh, 2013; Perez-Victoria et al., 2006; Seifert et al., 2007; cited from earlier work"}, "L. donovani amastigotes": {"system": "L. donovani amastigotes", "design": "method as in De Muylder et al., 2011", "conditions": "intracellular vs axenically grown amastigotes; ref De Muylder et al., 2011; cited from earlier work"}}, "note": "Where two headings read alike, the source gives them in different places."}
{"smiles": "NCC(=O)Nc1ccc(-n2nc(C(F)(F)F)cc2-c2ccc3c(ccc4ccccc43)c2)cc1", "note": "[AR-12]", "values": [{"measurement": "IC50", "setting": "[1]", "value": "3.3 ± 0.42", "unit": "µM"}, {"measurement": "Cytotoxicity LD50", "setting": "[2]", "value": "11.1 ± 2.5", "unit": "µM"}, {"measurement": "IC50", "setting": "[3]", "value": "1.18 ± 0.18", "unit": "µM"}, {"measurement": "IC50", "setting": "[4]", "value": "3.45 ± 0.07", "unit": "µM"}, {"measurement": "Selectivity (LD50/IC50)", "setting": "[5]", "value": 8}, {"measurement": "IC50", "setting": "[5]", "value": "1.44 ± 0.08", "unit": "µM"}]}
{"smiles": "C[C@@H]1[C@H](O)[C@@H](C)/C=C/C=C/C=C/C=C/C=C/C=C/C=C/[C@H](O[C@@H]2O[C@H](C)[C@@H](O)[C@H](N)[C@@H]2O)C[C@@H]2O[C@](O)(C[C@@H](O)C[C@@H](O)[C@H](O)CC[C@@H](O)C[C@@H](O)CC(=O)O[C@H]1C)C[C@H](O)[C@H]2C(=O)O", "note": "[Amphotericin B, amphotericin B]", "values": [{"measurement": "IC50", "setting": "[1]", "value": "0.047 ± 0.004", "unit": "µM"}, {"measurement": "VL patients cured", "setting": "VL patients", "value": 91, "unit": "%"}, {"measurement": "IC50", "setting": "[3]", "value": "0.024 ± 0.001", "unit": "µM"}, {"measurement": "Cytotoxicity LD50", "setting": "[6]", "value": "38.5 ± 4.95", "unit": "µM"}, {"measurement": "IC50", "setting": "[4]", "value": "0.049 ± 0.005", "unit": "µM"}, {"measurement": "Selectivity (LD50/IC50)", "setting": "[5]", "value": 1167}, {"measurement": "IC50", "setting": "[5]", "value": "0.033 ± 0.011", "unit": "µM"}]}
{"smiles": "CC(=O)C1=CC[C@H]2[C@@H]3CCC4=CC(=O)CC[C@]4(C)[C@H]3C[C@@H](O)[C@]12C", "note": "[DNER, 6,7-dihydroneridienone]", "values": [{"measurement": "IC50", "setting": "promastigotes", "value": 9200, "unit": "nM"}, {"measurement": "IC50", "setting": "[7]", "value": 1400, "unit": "nM"}]}
{"smiles": "CCCCCCCCCCCCCCCCOP(=O)([O-])OCC[N+](C)(C)C", "note": "[Miltefosine, miltefosine]", "values": [{"measurement": "IC50", "setting": "[1]", "value": "5.4 ± 0.42", "unit": "µM"}, {"measurement": "Cytotoxicity LD50", "setting": "[2]", "value": "62.5 ± 4.95", "unit": "µM"}, {"measurement": "drug half-life", "setting": "[8]", "value": "~150", "unit": "h"}, {"measurement": "IC50", "setting": "[3]", "value": "1.1 ± 0.37", "unit": "µM"}, {"measurement": "IC50", "setting": "[5]", "value": "0.55 ± 0.15", "unit": "µM"}]}
{"smiles": "NC[C@@H]1O[C@H](O[C@H]2[C@@H](O)[C@H](O[C@@H]3[C@@H](O)[C@H](N)C[C@H](N)[C@H]3O[C@H]3O[C@H](CO)[C@@H](O)[C@H](O)[C@H]3N)O[C@@H]2CO)[C@H](N)[C@@H](O)[C@@H]1O", "note": "[Paromomycin, paromomycin]", "values": [{"measurement": "IC50", "setting": "[1]", "value": "59 ± 5.66", "unit": "µM"}, {"measurement": "Cytotoxicity LD50", "setting": "[2]", "value": ">800", "unit": "µM"}, {"measurement": "IC50", "setting": "[3]", "value": "15.2 ± 4.67", "unit": "µM"}, {"measurement": "IC50", "setting": "[4]", "value": "22 ± 4.24", "unit": "µM"}, {"measurement": "Selectivity (LD50/IC50)", "setting": "[5]", "value": ">68"}, {"measurement": "IC50", "setting": "[5]", "value": "11.6 ± 0.42", "unit": "µM"}]}
{"smiles": "C=CCN1CC[C@]23c4c5ccc(O)c4O[C@H]2/C(=N/N=C2\\CC[C@@]4(O)[C@H]6Cc7ccc(O)c8c7[C@@]4(CCN6CC=C)[C@H]2O8)CC[C@@]3(O)[C@H]1C5", "note": "[naloxonazine]", "values": [{"measurement": "anti-leishmanial activity", "setting": "L. donovani amastigotes", "value": "found only against intracellular L. donovani amastigotes"}]}
